Common to all, as to assay: relative viability (nuclei count vs DMSO), 5 days (fraction); higher = more cells survive
Compound in the experiment “CUDC-101 + Palbociclib”: C#Cc1cccc(Nc2ncnc3cc(OC)c(OCCCCCCC(=O)NO)cc23)c1 [CUDC-101] + CC(=O)c1c(C)c2cnc(Nc3ccc(N4CCNCC4)cn3)nc2n(C2CCCC2)c1=O [Palbociclib] (partner 0.5 µM)
An outline of the steps: (§1)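 Medians of duplicate plates are given as relative viability. That measure is the nuclei count in treated wells divided by the count in vehicle wells. Counts were taken on 4× images of lung cancer cell lines in 1536-well plates, 5 days after pin-tool dosing the day after seeding with one drug alone or a fixed anchor-drug dose plus five library-drug doses (not always all listed) in √10 steps.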

Compound in the experiment “CUDC-101 + Crizotinib”: C#Cc1cccc(Nc2ncnc3cc(OC)c(OCCCCCCC(=O)NO)cc23)c1 [CUDC-101] + C[C@@H](Oc1cc(-c2cnn(C3CCNCC3)c2)cnc1N)c1c(Cl)ccc(F)c1Cl [Crizotinib] (partner 1 µM)
An outline of the steps: as §1

Compound in the experiment “Vandetanib + Bortezomib”: COc1cc2/c(=N/c3ccc(Br)cc3F)nc[nH]c2cc1OCC1CCN(C)CC1 [Vandetanib] + CC(C)C[C@H](NC(=O)[C@H](Cc1ccccc1)NC(=O)c1cnccn1)B(O)O [Bortezomib] (partner 0.002 µM)
Summed up:
as §1

Compound in the experiment “Vandetanib + Decitabine”: COc1cc2/c(=N/c3ccc(Br)cc3F)nc[nH]c2cc1OCC1CCN(C)CC1 [Vandetanib] + Nc1ncn([C@H]2C[C@H](O)[C@@H](CO)O2)c(=O)n1 [Decitabine] (partner 2 µM)
Summed up:
as §1

For UMC-11, the relative viability in the experiment with CUDC-101 + Palbociclib (first compound 0.01 µM) was 0.346; in the experiment with CUDC-101 + Palbociclib (first compound 0.03162 µM), 0.375; in the experiment with CUDC-101 + Palbociclib (first compound 0.1 µM), 0.323; in the experiment with CUDC-101 + Palbociclib (first compound 0.3162 µM), 0.277; with CUDC-101 + Palbociclib (first compound 1 µM), 0.228; with CUDC-101 + Crizotinib (first compound 0.01 µM), 0.67. Further, the relative viability is 0.577 with CUDC-101 + Crizotinib (first compound 0.03162 µM); 0.404 in the experiment with CUDC-101 + Crizotinib (first compound 0.1 µM); 0.215 in the experiment with CUDC-101 + Crizotinib (first compound 0.3162 µM); 0.136 with CUDC-101 + Crizotinib (first compound 1 µM); 0.743 with Vandetanib + Bortezomib (first compound 0.02 µM); 0.708 in the experiment with Vandetanib + Bortezomib (first compound 0.06325 µM). The relative viability with Vandetanib + Bortezomib (first compound 0.2 µM) came out at 0.61; in the experiment with Vandetanib + Bortezomib (first compound 0.6325 µM), 0.725; with Vandetanib + Bortezomib (first compound 2 µM) it was 0.746; in the experiment with Vandetanib + Decitabine (first compound 0.02 µM) it was 0.595; with Vandetanib + Decitabine (first compound 0.06325 µM), 0.553; in the experiment with Vandetanib + Decitabine (first compound 0.2 µM), 0.665. Besides, the relative viability in the experiment with Vandetanib + Decitabine (first compound 0.6325 µM) is 0.528; with Vandetanib + Decitabine (first compound 2 µM) it was 0.614.

(Values after the supplement of paper PMC10307832.)
